Laboratory results from EP4786454A1, “HETEROARYL DERIVATIVE AND USE THEREOF” (priority 2023, dated 2025).

Tests used:
[1] = Stability in liver microsomes (rat); assay type: in vitro ADME, Sprague-Dawley (SD) rats; details: r (SD rat liver microsomes), 0.5 mg/mL, read-out: MMS Clint
Description: The purpose of this study was to evaluate the phase I metabolic stability of the assay sample in liver microsomes from CD-1 mice, Sprague-Dawley (SD) rats, beagle dogs, cynomolgus monkeys, and human.
The animal and human liver microsomes used in this assay system were purchased from Xenotech, Corning, or other qualified suppliers.
Preparation of buffer: 73.21 g of potassium phosphate dibasic trihydrate and 10.78 g of potassium dihydrogen phosphate were dissolved in 4000 mL of ultrapure water. The pH of the solution was adjusted to the range of 7.40 ± 0.10 using 10.0% phosphoric acid or 1.00 M potassium hydroxide. Its final concentration was 100 mM.
Preparation of working solutions: An assay sample powder was prepared into a 10.0 mM stock solution with DMSO, and then further diluted with a suitable organic solvent. The control compounds testosterone, diclofenac, and propafenone were prepared into 10.0 mM stock solutions using DMSO, and then further diluted with a suitable organic solvent.
Preparation of liver microsome solution: Microsomes of various species were diluted with 100 mM potassium phosphate buffer to a working solution of 0.56 mg/mL. The final concentration of microsomes in the reaction system was 0.500 mg/mL. Detailed preparation procedures were described in the experimental records.
Preparation of reduced nicotinamide adenine dinucleotide phosphate (NADPH) solution: An appropriate amount of reduced nicotinamide adenine dinucleotide phosphate was dissolved in magnesium chloride solution, and the mixture was shaken to mix well. The final concentrations in the reaction system were 1.00 mM NADPH and 1.00 mM magnesium chloride, respectively. Detailed preparation procedures were described in the experimental records.
Preparation of stop solution: The stop solution was prepared using acetonitrile containing internal standards (tolbutamide and labetalol). The prepared stop solution was stored at 2.0 to 8.0 °C in a refrigerator. Detailed preparation procedures were described in the experimental records. […]

[2] = Plasma protein binding rate, equilibrium dialysis (monkey plasma); assay type: in vitro ADME, cynomolgus monkeys; details: c (cynomolgus monkey plasma), dialysis 4 hours at 37 °C, read-out: Unbound PPB%
Description: (§1) The protein binding rates of the compounds in the plasma of CD-1 mice, Sprague-Dawley rats, beagle dogs, cynomolgus monkeys, and human were determined using equilibrium dialysis method.
(§2) Commercially available plasma, dual-layer dialysis membrane, and equilibrium dialysis device.
(§3) The dual-layer dialysis membrane was soaked in ultrapure water for about 1 hour, removed and then divided into two parts. It was then soaked in an ethanol:water (20:80, v:v) solution for 20 minutes or placed at 2 to 8 °C, and it was valid for 1 month. Before starting the assay, the dialysis membrane was rinsed twice with ultrapure water and then soaked in ultrapure water for another 20 minutes for later use.
(§4) On the day of assay, the frozen plasma of CD-1 mice, Sprague-Dawley rats, beagle dogs, cynomolgus monkeys, and human was thawed in running cold tap water. After the plasma was completely thawed, the plasma was centrifuged at 3220×g for 5 minutes, and the suspended substances and precipitates in it were removed. The pH of the plasma was determined. The plasma with a pH in the range of 7.4 ± 0.1 was directly used, or the plasma with a pH in the range of 7.4 ± 0.1 after an adjustment with 1% phosphoric acid or 1M sodium hydroxide was used.
(§5) Preparation process of plasma samples: 597 µL of blank plasma from each of the above five species was taken, respectively. 3 µL of a compound or warfarin working solution was added, and the mixture was mixed thoroughly to give a plasma sample with a compound concentration of 2 µM and a warfarin concentration of 2 µM (n=1). The concentration of the organic phase DMSO was 0.5%. The sample was thoroughly mixed before proceeding to the next step.
(§6) Preparation process of T0 samples: 50 µL of a plasma sample containing the compound and warfarin was transferred to a sample receiving plate (n=3), and 50 µL of blank PBS was immediately added. Then, 500 µL of stop solution was added to the T0 sample of the compound and warfarin, and the mixture was stored at 2 to 8 °C, waiting to be processed later together with other dialysis-processed samples.
(§7) Dialysis process of plasma samples: 100 µL of a compound (2 µM) and warfarin (2 µM) plasma sample was added to the donor of each dialysis well (n=3), and 100 µL of blank PBS was added to the corresponding receiver of the dialysis well. The dialysis plate was placed in a 5% CO2 incubator, and incubated at 37 °C with shaking at approximately 100 rpm for 4 hours.
(§8) After the dialysis was completed, 50 µL of dialysis-processed PBS sample and dialysis-processed plasma sample (n=3) were transferred to a new 96-well plate (sample receiving plate). The corresponding volume of the corresponding blank plasma or PBS was added to the sample to make the final volume of each sample well 100 µL, with a plasma to PBS volume ratio of 1:1. All the samples were analyzed by LC-MS/MS after protein precipitation.
(§9) The formulas for calculating the unbound fraction (%Unbound), bound fraction (%Bound) and recovery fraction (%Recovery) of a compound are as follows: %Unbound = 100 ×F / T %Bound = 100 - %Unbound %Recovery = 100 ×(F + T)/ T0 wherein F is the concentration of the compound at the receiver of dialysis; T is the concentration of the compound at the supply end of dialysis; and T0 is the concentration of the compound in the plasma at time zero.

[3] = Plasma protein binding rate, equilibrium dialysis (rat plasma); assay type: in vitro ADME, Sprague-Dawley rats; details: r (Sprague-Dawley rat plasma), dialysis 4 hours at 37 °C, read-out: Unbound PPB%
Description: as §1, §2, §3, §4, §5, §6, §7, §8, §9

Compound	CLint scaled at 1 µM [1] [mL/min/kg]	fraction unbound at 4 h, 2 µM [2]	fraction unbound at 4 h, 2 µM [3]
CC(C)(C)CC(=O)Nc1nc2c(F)cc(C#N)cn2c1C12CC(C1)C2 [Compound 5]	< 17	0.159	0.166
CC(C)(C)CC(=O)Nc1nc2c(F)cc(C#N)cn2c1C1=CCCC1 [Compound 3]	123	0.134	0.097
CC(C)(C)CC(=O)Nc1nc2c(F)cc(C#N)cn2c1-c1ccc(OC(F)(F)F)cc1 [Compound 1]	193	0.072	0.071
